Drawing on ChEMBL document CHEMBL1142495, “Novel D3 selective dopaminergics incorporating enyne units as nonaromatic catechol bioisosteres: synthesis, bioactivity, and mutagenesis studies” (J Med Chem, 2008), this text covers EC50 and Ki for eleven compounds.

Test [1] concerns the target T1, D(3) dopamine receptor (Homo sapiens, UniProt P35462).
Description: Intrinsic activity at human D3 receptor expressed in CHO dhfr- cells assessed as inhibition of forskolin-induced cAMP release
For test [2], the target named is T1, D(3) dopamine receptor. The test is described as follows: biochemical.
Description: Displacement of [3H]spiperone from human wild type D3 receptor expressed in human HEK293 cells
Test [3] has as its target D(3) dopamine receptor (Homo sapiens, UniProt P35462, D110E). The test can be described thus: biochemical.
Description: Displacement of [3H]spiperone from human D3 D3.32E mutant receptor expressed in human HEK293 cells
Test [4] has as its target T1, D(3) dopamine receptor. The source holds these as a separate data set.
Description: Intrinsic activity at human D3 receptor expressed in CHO dhfr- cells by [3H]thymidine incorporation assay
Test [5] deals with D(3) dopamine receptor (Homo sapiens, UniProt P35462, F345W). The test can be described thus: biochemical.
Sequence of D(3) dopamine receptor (Homo sapiens, UniProt P35462, F345W) (P35462 as listed by the source F345W): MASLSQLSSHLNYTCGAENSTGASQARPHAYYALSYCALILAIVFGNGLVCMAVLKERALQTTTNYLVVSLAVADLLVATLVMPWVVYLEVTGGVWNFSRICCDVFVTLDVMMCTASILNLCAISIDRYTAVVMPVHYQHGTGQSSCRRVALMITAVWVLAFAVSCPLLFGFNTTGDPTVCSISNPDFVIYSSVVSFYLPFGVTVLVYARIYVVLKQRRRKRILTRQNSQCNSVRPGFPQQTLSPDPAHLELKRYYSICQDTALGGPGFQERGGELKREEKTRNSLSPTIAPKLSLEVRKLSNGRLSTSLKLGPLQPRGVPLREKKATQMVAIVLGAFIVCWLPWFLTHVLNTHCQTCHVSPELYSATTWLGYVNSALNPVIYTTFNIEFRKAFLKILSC
Description: Displacement of [3H]spiperone from human D3 F6.51W mutant receptor expressed in human HEK293 cells
Test [6] in a line: Displacement of [3H]ketanserin from 5HT2 receptor in pig cerebral cortex homogenate. (Loss of bound radioactivity is the signal in a displacement assay; it reports binding, not function.)
The nature of test [7]: Displacement of [3H]prazosin from adrenergic alpha1 receptor in pig cerebral cortex homogenate.
In test [8] the target is T2, D(4) dopamine receptor (Homo sapiens, UniProt P21917).
T2 sequence (P21917 whole entry): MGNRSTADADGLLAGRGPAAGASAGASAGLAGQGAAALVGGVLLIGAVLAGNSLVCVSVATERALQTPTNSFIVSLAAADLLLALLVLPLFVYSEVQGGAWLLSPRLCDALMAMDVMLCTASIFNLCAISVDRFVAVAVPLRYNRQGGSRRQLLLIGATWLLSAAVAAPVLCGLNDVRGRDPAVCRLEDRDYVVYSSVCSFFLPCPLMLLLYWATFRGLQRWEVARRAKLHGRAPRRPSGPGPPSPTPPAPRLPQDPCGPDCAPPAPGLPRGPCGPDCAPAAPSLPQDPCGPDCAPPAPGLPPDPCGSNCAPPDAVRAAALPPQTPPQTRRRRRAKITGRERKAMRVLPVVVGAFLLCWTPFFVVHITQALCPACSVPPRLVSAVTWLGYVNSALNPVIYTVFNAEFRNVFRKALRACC
The test is described as follows: Displacement of [3H]spiperone from human D4 receptor expressed in CHO cells. It is filed as cell-based.

For test [9], the target named is D(1A) dopamine receptor (Sus scrofa, UniProt P50130). The test is described as follows: Displacement of [3H]SCH23390 from D1 receptor in pig striatal membrane. The format is cell membranes, Striatum.
Sequence of D(1A) dopamine receptor (P50130 whole entry): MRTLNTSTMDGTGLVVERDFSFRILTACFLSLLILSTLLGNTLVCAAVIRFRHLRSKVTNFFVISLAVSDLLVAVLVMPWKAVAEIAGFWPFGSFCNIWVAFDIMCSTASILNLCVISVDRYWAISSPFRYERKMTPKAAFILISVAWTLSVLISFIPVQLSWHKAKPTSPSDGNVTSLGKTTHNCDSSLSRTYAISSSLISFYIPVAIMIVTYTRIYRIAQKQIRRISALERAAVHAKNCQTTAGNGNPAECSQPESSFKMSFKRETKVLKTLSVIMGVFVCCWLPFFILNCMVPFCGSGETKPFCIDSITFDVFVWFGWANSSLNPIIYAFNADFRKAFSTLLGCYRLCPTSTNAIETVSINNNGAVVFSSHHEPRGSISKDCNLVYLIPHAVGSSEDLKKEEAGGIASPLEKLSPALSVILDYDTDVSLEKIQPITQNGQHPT
In test [10] the target is T1, D(3) dopamine receptor. The test is described as follows: biochemical. This is another data set of the same source.
Description: Displacement of [3H]spiperone from human D3 receptor expressed in CHO cells
Test [11] concerns the target T3, D(2) dopamine receptor (Homo sapiens, UniProt P14416). The test is described as follows: Displacement of [3H]spiperone from human D2short receptor expressed in CHO cells. The format is cell-based.
Test [12] is described as follows: Displacement of [3H]WAY100635 from 5HT1A receptor in pig cerebral cortex homogenate.
The target in test [13] is T3, D(2) dopamine receptor. The test is described as follows: Displacement of [3H]spiperone from human D2long receptor expressed in CHO cells. The format is cell-based.

As a reminder, the EC50 is the concentration giving half of the maximal effect. Usually Ki stands for a dissociation constant, usually derived from enzyme kinetics or from competition with a known ligand. Low values mean a stronger hold on the target, high ones a looser hold on the target.

A value given as a limit tells only on which side of the number the result lay.

T1 sequence (P35462 whole entry): as the sequence (P35462 as listed by the source F345W) above, with S9G, W345F counted along it
T3 sequence (P14416 whole entry): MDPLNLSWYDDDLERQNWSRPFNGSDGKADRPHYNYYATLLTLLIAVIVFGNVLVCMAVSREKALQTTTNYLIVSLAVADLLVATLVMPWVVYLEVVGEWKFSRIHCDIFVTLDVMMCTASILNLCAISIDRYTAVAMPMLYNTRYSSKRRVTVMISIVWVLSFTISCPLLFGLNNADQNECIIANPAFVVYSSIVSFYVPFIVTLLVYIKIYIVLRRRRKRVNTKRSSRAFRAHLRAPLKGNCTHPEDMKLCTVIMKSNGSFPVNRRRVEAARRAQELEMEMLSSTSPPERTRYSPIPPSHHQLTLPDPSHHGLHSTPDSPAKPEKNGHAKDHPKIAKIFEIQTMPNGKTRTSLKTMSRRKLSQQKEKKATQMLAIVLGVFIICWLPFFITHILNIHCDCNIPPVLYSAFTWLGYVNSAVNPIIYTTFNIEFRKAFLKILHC
Sequence of D(3) dopamine receptor (Homo sapiens, UniProt P35462, D110E) (P35462 as listed by the source D110E): as the sequence (P35462 as listed by the source F345W) above, with D110E, W345F counted along it

For the compound `C#CC1=CCC(N(CCC)CCC)CC1` (configuration not stated), the EC50 came out at 7.7 nM in [1] and 4.4 nM in test [4]. The Ki in [2] is 190 nM; in test [3], over 10000 nM; in test [5], 5700 nM.

On to `CCCNCCCCNC(=O)c1ccc(-c2ccccc2)cc1`, for which the Ki in test [6] was 860 nM; in test [7] it was 2500 nM; in [8], 6100 nM; in test [9] it was 7300 nM; in test [10], 11000 nM; in [11], over 100000 nM. Further, the Ki was found to be 9500 nM in test [12] and 21000 nM in [13].

As for `CCCN(CCCCNC(=O)c1ccc(-c2ccccc2)cc1)C1CC=C(C#C[Si](C)(C)C)CC1` (configuration not stated), the Ki came out at 1400 nM in test [6]; 2200 nM in test [7]; 69 nM in test [8]; 3800 nM in [9]; 4.4 nM in [10]; 360 nM in test [11]. Further, the figures for the Ki in test [12] and in [13] were 660 nM and 220 nM, respectively.

For `C#CC1=CCC(N(CCC)CCCCn2cc(-c3ccc(-c4ccccc4)cc3)nn2)CC1` (configuration not stated), the Ki in test [6] stood at 2700 nM; in test [7], 4400 nM; in test [8] it was 190 nM; in test [9], 9500 nM; in [10] it was 1.3 nM; in [2] it was 2.5 nM. Moreover, the Ki in [11] is 170 nM; in test [12] it was 2500 nM; in test [3], 1500 nM; in [5], 33 nM; in test [13], 610 nM. For the same compound, the EC50 turned out to be 3.1 nM in [1] and 2.6 nM in test [4].

For the compound `CC#CC1=CCC(N(CCC)CCCCn2cc(C)nn2)CC1` (configuration not stated), the Ki was 15000 nM in test [6]; 8700 nM in test [7]; 100 nM in test [8]; over 100000 nM in test [9]; 280 nM in test [10]; 2100 nM in [11]. Moreover, the Ki was 1800 nM in test [12] and 4100 nM in test [13].

Turning to `CCCN(CCC)CCCCNC(=O)c1ccc(-c2ccccc2)cc1`, the inhibition constant Ki in test [6] amounted to 790 nM; in [7] it was 2400 nM; in test [8], 1400 nM; in test [9], 6800 nM; in test [10], 950 nM; in test [11] it was 8800 nM. Besides, the Ki amounted to 2800 nM in test [12] and 9700 nM in test [13].

For `CCCN(CCCCNC(=O)c1ccc(-c2ccccc2)cc1)C1CC=C(C#Cc2ccccc2)CC1` (configuration not stated), the Ki in test [6] was 8300 nM; in test [7], 4600 nM; in test [8], 3100 nM; in test [9], 13000 nM; in test [10], 300 nM; in [11] it was 4700 nM. For the same compound, the Ki in [12] is 5800 nM; in [13], 5500 nM.

With `C#CC1=CCC(N(CCC)CCCCNC(=O)c2ccc(-c3ccccc3)cc2)CC1` (configuration not stated), the Ki in test [6] came out at 460 nM; in test [7], 510 nM; in test [8], 4.3 nM; in [9] it was 2900 nM; in [12] it was 230 nM.

`CCCN(CCCCNC(=O)c1ccc(-c2ccccc2)cc1)C1CCCCC1`: the Ki in test [6] is 890 nM; in test [7], 1100 nM; in test [8] it was 670 nM; in test [9], 4600 nM; in [10] it was 140 nM; in [11] it was 6300 nM. The Ki in test [12] was found to be 1200 nM; in [13], 4700 nM.

Take `CCCN(CCCCn1cc(-c2ccc(-c3ccccc3)cc2)nn1)C1CC=C(C#C[Si](C)(C)C)CC1` (configuration not stated): the Ki worked out at 8300 nM in test [6]; 1900 nM in [7]; 1800 nM in [8]; 5800 nM in test [9]; 13 nM in test [10]; 670 nM in test [11]. Further, the inhibition constant (Ki) in test [12] was determined as 6900 nM; in [13] it was 690 nM.

With `CCCN(CCCCn1cc(-c2ccc(-c3ccccc3)cc2)nn1)C1CC=C(C#Cc2ccccc2)CC1` (configuration not stated), the Ki in test [6] is 5700 nM; in test [7], 900 nM; in [8], 1100 nM; in [9] it was 1700 nM; in [10], 150 nM; in [11], 180 nM. Moreover, the Ki in [12] was 5900 nM; in [13] it was 210 nM.
